Earlier results on one compound are cited in patent US20170333338A1, “SUSTAINED AND REVERSIBLE ORAL DRUG DELIVERY SYSTEMS” (The Children's Medical Center Corporation, priority 2014, published 2017).

Regarding `NCCC(O)(P(=O)(O)O)P(=O)(O)O` [Pamidronate], the “highest pKa of the phosphate groups” value was 10.18.
